The record followed here is ChEMBL document CHEMBL1157889, “Peripheral site acetylcholinesterase inhibitors targeting both inflammation and cholinergic dysfunction” (Bioorg Med Chem Lett, 2010).

For orientation: pIC50 means −log10 of the IC50, conventionally taken in molar units.

pIC50: −log10 of the molar value.

The nature of data set [1]: Chemical stability assessed as hydrolysis half life in presence of 80% human plasma. Format: ADME, cell-free.
Another data set addresses Acetylcholinesterase (Electrophorus electricus, UniProt O42275). The data set can be described thus: Inhibition of electric eel AChE by Ellman's method. A general note: In Ellman's method for cholinesterases, released thiocholine reacts with DTNB.

Sequence of Acetylcholinesterase (O42275 whole entry): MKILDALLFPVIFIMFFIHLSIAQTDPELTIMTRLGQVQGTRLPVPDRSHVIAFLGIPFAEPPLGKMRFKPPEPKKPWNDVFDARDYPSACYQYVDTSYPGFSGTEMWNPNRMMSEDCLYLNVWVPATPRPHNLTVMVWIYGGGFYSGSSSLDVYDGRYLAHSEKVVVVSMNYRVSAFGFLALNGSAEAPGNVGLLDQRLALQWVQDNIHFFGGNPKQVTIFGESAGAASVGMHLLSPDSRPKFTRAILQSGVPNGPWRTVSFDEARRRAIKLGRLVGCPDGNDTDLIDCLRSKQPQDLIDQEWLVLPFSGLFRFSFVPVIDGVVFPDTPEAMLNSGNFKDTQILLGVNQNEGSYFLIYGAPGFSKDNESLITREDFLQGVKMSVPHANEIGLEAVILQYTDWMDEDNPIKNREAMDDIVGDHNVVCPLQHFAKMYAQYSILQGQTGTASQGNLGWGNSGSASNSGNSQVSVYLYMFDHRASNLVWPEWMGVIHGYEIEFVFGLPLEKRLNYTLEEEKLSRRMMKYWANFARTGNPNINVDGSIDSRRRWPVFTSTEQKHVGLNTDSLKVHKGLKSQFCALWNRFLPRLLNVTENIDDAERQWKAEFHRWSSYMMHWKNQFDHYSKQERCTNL

`COc1ccc2cc([C@H](C)C(=O)OCC[Si](C)(C)C)ccc2c1`: in data set [1], the t1/2 is 1.05 h.
As for `COc1ccc2cc([C@H](C)C(=O)OCCC(C)(C)C)ccc2c1`, the t1/2 in data set [1] is 0.633 h.
Take `CC(C)(C)CCOC(=O)Oc1ccc(COC(=O)Cc2ccccc2Nc2c(Cl)cccc2Cl)cc1`: the t1/2 in data set [1] came out at 5.95 h. This molecule gave a negative-log IC50 (pIC50) on Acetylcholinesterase of 6.29.
On to `COc1ccc2c(c1)c(CC(=O)OCc1ccc(OC(=O)OCCC(C)(C)C)cc1)c(C)n2C(=O)c1ccc(Cl)cc1`, for which the t1/2 in data set [1] was 7.8 h.
With `CC(C)(C)CCOC(=O)Cc1ccccc1Nc1c(Cl)cccc1Cl`, in data set [1], the t1/2 turned out to be 1.85 h.
`COc1ccc2cc([C@H](C)C(=O)OCc3ccc(OC(=O)OCCC(C)(C)C)cc3)ccc2c1`: the t1/2 in data set [1] amounted to 2.25 h.
Same read-out and setting: then `CC(C)Cc1ccc(C(C)C(=O)OCc2ccc(OC(=O)OCCC(C)(C)C)cc2)cc1` (centres undefined), with 3.4 h; and `COc1ccc2cc([C@H](C)C(=O)OCc3ccc(OC(=O)OCC[Si](C)(C)C)cc3)ccc2c1`, with 4.22 h.
